Consider 21 compounds from patent US20220089592A1, “IMIDAZO[1,2-A]PYRIDINYL DERIVATIVES AS IRAK4 INHIBITORS” (priority 2019, published 2022).

In this assay the target is T1, IRAK4 (Homo sapiens, UniProt Q9NWZ3).
T1 sequence (Q9NWZ3 1-460): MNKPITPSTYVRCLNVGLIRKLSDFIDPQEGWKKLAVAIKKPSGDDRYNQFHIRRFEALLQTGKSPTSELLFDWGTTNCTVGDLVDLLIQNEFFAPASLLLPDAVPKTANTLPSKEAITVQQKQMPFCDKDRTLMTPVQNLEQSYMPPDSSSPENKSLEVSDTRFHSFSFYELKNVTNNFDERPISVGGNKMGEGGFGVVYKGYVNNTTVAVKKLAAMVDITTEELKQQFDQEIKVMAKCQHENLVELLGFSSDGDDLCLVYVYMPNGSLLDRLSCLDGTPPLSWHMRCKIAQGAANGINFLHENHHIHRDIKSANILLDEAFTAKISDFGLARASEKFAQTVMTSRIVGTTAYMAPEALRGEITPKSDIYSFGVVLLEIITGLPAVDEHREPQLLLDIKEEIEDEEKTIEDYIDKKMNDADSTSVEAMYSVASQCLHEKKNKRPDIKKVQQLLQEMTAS
Briefly: 2-hour 1 mM ATP IRAK4 Biochemical assay (as above, but with 100 pM IRAK4 and 1 mM ATP). The following applies: IRAK4 MSD BIOCHEMICAL (1 mM ATP) IC50 (μM), 100 pM IRAK4, 2 hours. The procedure, abridged: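 Run with 100 pM IRAK4 and 1 mM ATP for 2 hours, quenched with EDTA pH 8. Phosphorylated biotinylated peptide captured on streptavidin MSD plates and detected with anti-phosphothreonine antibody plus Sulfo-Tag secondary by electrochemiluminescence.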
As for `CC12CC(c3cn4cc(NC(=O)c5cccc(C(F)F)n5)cc(OC(F)F)c4n3)(CO1)C2` [Example 419, N-(8-(difluoromethoxy)-2-(1-methyl-2-oxabicyclo[2.1.1]hexan-4-yl)imidazo[1,2-a]pyridin-6-yl)-6-(difluoromethyl)picolinamide], the IC50 was 0.011 µM.
Take `COc1ncccc1C(=O)Nc1cc(OC(F)F)c2nc(C34COC(C)(C3)C4)cn2c1` [Example 420, N-(8-(difluoromethoxy)-2-(1-methyl-2-oxabicyclo[2.1.1]hexan-4-yl)imidazo[1,2-a]pyridin-6-yl)-2-methoxynicotinamide 2,2,2-trifluoroacetate]: half-maximal inhibition (IC50) required 0.071 µM.
The figure for `CC12CC(c3cn4cc(NC(=O)c5cccc6c5OCC6)cc(OC(F)F)c4n3)(CO1)C2` [Example 421, N-(8-(difluoromethoxy)-2-(1-methyl-2-oxabicyclo[2.1.1]hexan-4-yl)imidazo[1,2-a]pyridin-6-yl)-2,3-dihydrobenzofuran-7-carboxamide 2,2,2-trifluoroacetate] is 0.018 µM; for `CC12CC(c3cn4cc(NC(=O)c5cccc6ccnn56)cc(OC(F)F)c4n3)(CO1)C2` [Example 422, N-(8-(difluoromethoxy)-2-(1-methyl-2-oxabicyclo[2.1.1]hexan-4-yl)imidazo[1,2-a]pyridin-6-yl)pyrazolo[1,5-a]pyridine-7-carboxamide 2,2,2-trifluoroacetate] it is 0.012 µM.
As to `Cn1ccc(C(=O)Nc2cc(OC(F)F)c3nc(C45COC(C)(C4)C5)cn3c2)n1` [Example 423, N-(8-(difluoromethoxy)-2-(1-methyl-2-oxabicyclo[2.1.1]hexan-4-yl)imidazo[1,2-a]pyridin-6-yl)-1-methyl-1H-pyrazole-3-carboxamide 2,2,2-trifluoroacetate], the IC50 worked out at 0.092 µM.
The compound `COc1ccccc1C(=O)Nc1cn2cc(C34COC(C)(C3)C4)nc2c(F)c1OC(C)C` [Example 424, N-(8-fluoro-7-isopropoxy-2-(1-methyl-2-oxabicyclo[2.1.1]hexan-4-yl)imidazo[1,2-a]pyridin-6-yl)-2-methoxybenzamide 2,2,2-trifluoroacetate] returned an IC50 of 0.017 µM.
As to `Cc1cccc(C(=O)Nc2cn3cc(C45COC(C)(C4)C5)nc3c(F)c2OC(C)C)c1F` [Example 425, 2-fluoro-N-(8-fluoro-7-isopropoxy-2-(1-methyl-2-oxabicyclo[2.1.1]hexan-4-yl)imidazo[1,2-a]pyridin-6-yl)-3-methylbenzamide 2,2,2-trifluoroacetate], the IC50 came out at 0.003 µM.
With `COc1cccc(C(=O)Nc2cn3cc(C45COC(C)(C4)C5)nc3c(F)c2OC(C)C)n1` [Example 426, N-(8-fluoro-7-isopropoxy-2-(1-methyl-2-oxabicyclo[2.1.1]hexan-4-yl)imidazo[1,2-a]pyridin-6-yl)-6-methoxypicolinamide], the IC50 amounted to 0.002 µM.
The figure for `COc1c(NC(=O)c2cccc(C(F)F)n2)cn2cc(C3CCOCC3)nc2c1C` [Example 427, 6-(difluoromethyl)-N-(7-methoxy-8-methyl-2-(tetrahydro-2H-pyran-4-yl)imidazo[1,2-a]pyridin-6-yl)picolinamide] is 0.003 µM.
As for `COc1ncccc1C(=O)Nc1cn2cc(C34COC(C)(C3)C4)nc2c(F)c1OC(C)C` [Example 428, N-(8-fluoro-7-isopropoxy-2-(1-methyl-2-oxabicyclo[2.1.1]hexan-4-yl)imidazo[1,2-a]pyridin-6-yl)-2-methoxynicotinamide], the IC50 came out at 0.01 µM.
Under `CC(C)Oc1c(NC(=O)c2cccc(OCC(F)F)n2)cn2cc(C34COC(C)(C3)C4)nc2c1F` [Example 429, 6-(2,2-difluoroethoxy)-N-(8-fluoro-7-isopropoxy-2-(1-methyl-2-oxabicyclo[2.1.1]hexan-4-yl)imidazo[1,2-a]pyridin-6-yl)picolinamide 2,2,2-trifluoroacetate] stands 0.006 µM; under `CC(C)Oc1c(NC(=O)c2coc(C(F)F)n2)cn2cc(C34COC(C)(C3)C4)nc2c1F` [Example 430, 2-(difluoromethyl)-N-(8-fluoro-7-isopropoxy-2-(1-methyl-2-oxabicyclo[2.1.1]hexan-4-yl)imidazo[1,2-a]pyridin-6-yl)oxazole-4-carboxamide 2,2,2-trifluoroacetate], 0.008 µM.
Regarding `CC(C)Oc1c(NC(=O)c2coc(C3CC3)n2)cn2cc(C34COC(C)(C3)C4)nc2c1F` [Example 431, 2-cyclopropyl-N-(8-fluoro-7-isopropoxy-2-(1-methyl-2-oxabicyclo[2.1.1]hexan-4-yl)imidazo[1,2-a]pyridin-6-yl)oxazole-4-carboxamide], the IC50 was 0.001 µM.
The compound `CC(C)Oc1c(NC(=O)c2ccn(C)n2)cn2cc(C34COC(C)(C3)C4)nc2c1F` [Example 432, N-(8-fluoro-7-isopropoxy-2-(1-methyl-2-oxabicyclo[2.1.1]hexan-4-yl)imidazo[1,2-a]pyridin-6-yl)-1-methyl-1H-pyrazole-3-carboxamide 2,2,2-trifluoroacetate] had an IC50 of 0.005 µM.
Compound `CC(C)Oc1c(NC(=O)c2ccnc3ccnn23)cn2cc(C34COC(C)(C3)C4)nc2c1F` [Example 433, N-(8-fluoro-7-isopropoxy-2-(1-methyl-2-oxabicyclo[2.1.1]hexan-4-yl)imidazo[1,2-a]pyridin-6-yl)pyrazolo[1,5-a]pyrimidine-7-carboxamide] displayed an IC50 of 0.013 µM.
`CC(C)Oc1c(NC(=O)c2cccc3ncnn23)cn2cc(C34COC(C)(C3)C4)nc2c1F` [Example 434, N-(8-fluoro-7-isopropoxy-2-(1-methyl-2-oxabicyclo[2.1.1]hexan-4-yl)imidazo[1,2-a]pyridin-6-yl)-[1,2,4]triazolo[1,5-a]pyridine-5-carboxamide] displayed an IC50 of 0.004 µM.
For `COc1ncccc1C(=O)Nc1cn2cc(C34CCC(C)(C3)OC4)nc2c(F)c1OC(C)C` (stereo not drawn) [Example 435, N-(8-fluoro-7-isopropoxy-2-(1-methyl-2-oxabicyclo[2.2.1]heptan-4-yl)imidazo[1,2-a]pyridin-6-yl)-2-methoxynicotinamide 2,2,2-trifluoroacetate], the concentration for half-maximal inhibition (IC50) came to 0.012 µM.
The figure for `COc1ncccc1C(=O)Nc1cn2cc(C34COC(C)(C3)C4)nc2c(F)c1OC1CCC1` [Example 436, N-(7-cyclobutoxy-8-fluoro-2-(1-methyl-2-oxabicyclo[2.1.1]hexan-4-yl)imidazo[1,2-a]pyridin-6-yl)-2-methoxynicotinamide 2,2,2-trifluoroacetate] is 0.029 µM.
The compound `Cn1ccc(C(=O)Nc2cn3cc(C45COC(C)(C4)C5)nc3c(F)c2OC2CCCC2)n1` [Example 437, N-(7-(cyclopentyloxy)-8-fluoro-2-(1-methyl-2-oxabicyclo[2.1.1]hexan-4-yl)imidazo[1,2-a]pyridin-6-yl)-1-methyl-1H-pyrazole-3-carboxamide 2,2,2-trifluoroacetate] had a half-maximal inhibitory concentration (IC50) of 0.004 µM.
Under `CCc1cccc(C(=O)Nc2cn3cc(C4CCOCC4)nc3cn2)n1` [Example 438, 6-ethyl-N-(2-(tetrahydro-2H-pyran-4-yl)imidazo[1,2-a]pyrazin-6-yl)picolinamide] stands 0.007 µM.
Take `COc1nc(NC(=O)c2coc(C(F)F)n2)cn2cc(C34COC(C)(C3)C4)nc12` [Example 439, 2-(difluoromethyl)-N-(8-methoxy-2-(1-methyl-2-oxabicyclo[2.1.1]hexan-4-yl)imidazo[1,2-a]pyrazin-6-yl)oxazole-4-carboxamide]: 0.063 µM corresponded to half-maximal inhibition (IC50).

The IC50 is the concentration that gives 50% inhibition. A higher IC50 goes with lower potency.
